Experimental data: US20230256102A1, “COMPOSITES AND USES THEREOF” (YISSUM RESEARCH DEVELOPMENT COMPANY OF THE HEBREW …, priority 2019, published 2023)
Square brackets hold non-standard residues; d marks the D form. Peptide text beside a SMILES is read from it. * marks the point of attachment. Palmitoyl = CCCCCCCCCCCCCCCC(=O)*

system: Xanthomonas campestris pv. campestris (Xcc) ATCC 33913; test: Minimal inhibitory concentration (MIC) assay; type: cell-based; conditions: 24 h, 28° C.
Method: Bacterial strains and growth conditions: The bacterial strains used in this study are detailed in Table 2. Unless stated otherwise, all strains were grown on nutrient agar (NA, Difco) or nutrient broth (NB, Difco), except Pst that was grown on Kings B agar plates and NB. All strains were grown at 28° C. for 48 h. All bacterial cells used in this study were stored in 25% glycerol at −80° C.
Minimal inhibitory concentration (MIC) assay: MIC values were determined by broth microdilution in sterile 96-flat bottom well plates (Corning 3650) as described by Hayouka et al. (2013). Briefly, Xcc cells were grown for 24 h in NB at 28° C., with shaking (180 rpm) and re-suspended in fresh NB to reach an OD600 nm of 0.1 (˜10^8 CFU/ml) that was measured using a Genesys 10 uv spectrophotometer (ThermoSpectronic). One hundred microliter-aliquots of Xcc cells were added to 100 μl of NB medium containing peptides/lipopeptides at various concentrations. Bacterial growth was determined after incubation of 24 h at 28° C. by measurement of the optical density (OD595 nm), using a Tecan infinite Pro Plate reader. […] The highest concentration tested was 200 μg/ml. Each experiment was carried out at least three times, with three replicates per strain/concentration combination in each experiment.

Point of comparison: `CCCCCCCCCCCCCCCC(=O)N[C@@H](Cc1ccccc1)C(=O)N[C@H](CCCCN)C(=O)N[C@H](CCCCN)C(=O)N[C@@H](Cc1ccccc1)C(=O)N[C@@H](Cc1ccccc1)C(N)=O` [lipopeptide #19, p-FkkFF] (Palmitoyl-F[dK][dK]FF-NH2), MIC value 38 µg/mL. Against it:
- CCCCCCCCCCCCCCCC(=O)N[C@@H](Cc1ccccc1)C(=O)N[C@@H](Cc1ccccc1)C(=O)N[C@H](CCCCN)C(=O)N[C@H](CCCCN)C(=O)N[C@H](CCCCN)C(N)=O [lipopeptide #16, p-FFkkk] (Palmitoyl-FF[dK][dK][dK]-NH2) — within 1.5-fold, 50 µg/mL
- CCCCCCCCCCCCCCCC(=O)N[C@@H](Cc1ccccc1)C(=O)N[C@H](CCCCN)C(=O)N[C@H](CCCCN)C(=O)N[C@H](CCCCN)C(=O)N[C@H](CCCCN)C(N)=O [lipopeptide #6, p-Fkkkk] (Palmitoyl-F[dK][dK][dK][dK]-NH2) — 3.2-fold lower, 12 µg/mL

same assay, conditions: 24 h, 28° C., ND = non-detected at tested concentrations (up to 200 μg/ml)

Point of comparison: `CCCCCCCCCCCCCCCC(=O)N[C@H](CCCCN)C(=O)N[C@@H](Cc1ccccc1)C(=O)N[C@@H](Cc1ccccc1)C(=O)N[C@@H](Cc1ccccc1)C(=O)N[C@H](CCCCN)C(N)=O` [lipopeptide #23, p-kFFFk] (Palmitoyl-[dK]FFF[dK]-NH2), “Average MIC” value 100 µg/mL. Against it:
- CCCCCCCCCCCCCCCC(=O)N[C@@H](Cc1ccccc1)C(=O)N[C@H](CCCCN)C(=O)N[C@@H](Cc1ccccc1)C(=O)N[C@H](CCCCN)C(=O)N[C@@H](Cc1ccccc1)C(N)=O [lipopeptide #21, p-FkFkF] (Palmitoyl-F[dK]F[dK]F-NH2) — 2.6-fold lower, 38 µg/mL
- CCCCCCCCCCCCCCCC(=O)N[C@H](CCCCN)C(=O)N[C@@H](Cc1ccccc1)C(=O)N[C@H](CCCCN)C(=O)N[C@@H](Cc1ccccc1)C(=O)N[C@@H](Cc1ccccc1)C(N)=O [lipopeptide #18, p-kFkFF] (Palmitoyl-[dK]F[dK]FF-NH2) — 2-fold lower, 50 µg/mL
- CCCCCCCCCCCCCCCC(=O)N[C@H](CCCCN)C(=O)N[C@H](CCCCN)C(=O)N[C@H](CCCCN)C(=O)N[C@@H](Cc1ccccc1)C(=O)N[C@H](CCCCN)C(N)=O [lipopeptide #3, p-kkkFk] (Palmitoyl-[dK][dK][dK]F[dK]-NH2) — 25-fold lower, 4 µg/mL
- CCCCCCCCCCCCCCCC(=O)N[C@H](CCCCN)C(=O)N[C@H](CCCCN)C(=O)N[C@@H](Cc1ccccc1)C(=O)N[C@H](CCCCN)C(=O)N[C@H](CCCCN)C(N)=O [lipopeptide #4, p-kkFkk] (Palmitoyl-[dK][dK]F[dK][dK]-NH2) — 17-fold lower, 6 µg/mL
- CCCCCCCCCCCCCCCC(=O)N[C@H](CCCCN)C(=O)N[C@H](CCCCN)C(=O)N[C@H](CCCCN)C(=O)N[C@@H](Cc1ccccc1)C(=O)N[C@@H](Cc1ccccc1)C(N)=O [lipopeptide #7, p-kkkFF] (Palmitoyl-[dK][dK][dK]FF-NH2) — 7.1-fold lower, 14 µg/mL
- CCCCCCCCCCCCCCCC(=O)N[C@H](CCCCN)C(=O)N[C@@H](Cc1ccccc1)C(=O)N[C@H](CCCCN)C(=O)N[C@H](CCCCN)C(=O)N[C@@H](Cc1ccccc1)C(N)=O [lipopeptide #9, p-kFkkF] (Palmitoyl-[dK]F[dK][dK]F-NH2) — 20-fold lower, 5 µg/mL
- CCCCCCCCCCCCCCCC(=O)N[C@H](CCCCN)C(=O)N[C@@H](Cc1ccccc1)C(=O)N[C@H](CCCCN)C(=O)N[C@H](CCCCN)C(=O)N[C@H](CCCCN)C(N)=O [lipopeptide #5, p-kFkkk] (Palmitoyl-[dK]F[dK][dK][dK]-NH2) — 17-fold lower, 6 µg/mL
- CCCCCCCCCCCCCCCC(=O)N[C@H](CCCCN)C(=O)N[C@H](CCCCN)C(=O)N[C@@H](Cc1ccccc1)C(=O)N[C@@H](Cc1ccccc1)C(=O)N[C@@H](Cc1ccccc1)C(N)=O [lipopeptide #17, p-kkFFF] (Palmitoyl-[dK][dK]FFF-NH2) — 2-fold lower, 50 µg/mL
- CCCCCCCCCCCCCCCC(=O)N[C@@H](Cc1ccccc1)C(=O)N[C@H](CCCCN)C(=O)N[C@@H](Cc1ccccc1)C(=O)N[C@H](CCCCN)C(=O)N[C@H](CCCCN)C(N)=O [lipopeptide #15, p-FkFkk] (Palmitoyl-F[dK]F[dK][dK]-NH2) — 10-fold lower, 10 µg/mL
- CCCCCCCCCCCCCCCC(=O)N[C@H](CCCCN)C(=O)N[C@H](CCCCN)C(=O)N[C@H](CCCCN)C(=O)N[C@H](CCCCN)C(=O)N[C@@H](Cc1ccccc1)C(N)=O [lipopeptide #2, p-kkkkF] (Palmitoyl-[dK][dK][dK][dK]F-NH2) — 17-fold lower, 6 µg/mL
- CCCCCCCCCCCCCCCC(=O)N[C@@H](Cc1ccccc1)C(=O)N[C@H](CCCCN)C(=O)N[C@H](CCCCN)C(=O)N[C@@H](Cc1ccccc1)C(=O)N[C@H](CCCCN)C(N)=O [lipopeptide #13, p-FkkFk] (Palmitoyl-F[dK][dK]F[dK]-NH2) — 17-fold lower, 6 µg/mL
- CCCCCCCCCCCCCCCC(=O)N[C@@H](Cc1ccccc1)C(=O)N[C@H](CCCCN)C(=O)N[C@H](CCCCN)C(=O)N[C@H](CCCCN)C(=O)N[C@@H](Cc1ccccc1)C(N)=O [lipopeptide #10, p-FkkkF] (Palmitoyl-F[dK][dK][dK]F-NH2) — 17-fold lower, 6 µg/mL
- CCCCCCCCCCCCCCCC(=O)N[C@H](CCCCN)C(=O)N[C@H](CCCCN)C(=O)N[C@@H](Cc1ccccc1)C(=O)N[C@@H](Cc1ccccc1)C(=O)N[C@H](CCCCN)C(N)=O [lipopeptide #11, p-kkFFk] (Palmitoyl-[dK][dK]FF[dK]-NH2) — 17-fold lower, 6 µg/mL
- CCCCCCCCCCCCCCCC(=O)N[C@H](CCCCN)C(=O)N[C@@H](Cc1ccccc1)C(=O)N[C@@H](Cc1ccccc1)C(=O)N[C@H](CCCCN)C(=O)N[C@H](CCCCN)C(N)=O [lipopeptide #14, p-kFFkk] (Palmitoyl-[dK]FF[dK][dK]-NH2) — 12-fold lower, 8 µg/mL
- CCCCCCCCCCCCCCCC(=O)N[C@H](CCCCN)C(=O)N[C@@H](Cc1ccccc1)C(=O)N[C@@H](Cc1ccccc1)C(=O)N[C@H](CCCCN)C(=O)N[C@@H](Cc1ccccc1)C(N)=O [lipopeptide #20, p-kFFkF] (Palmitoyl-[dK]FF[dK]F-NH2) — the same, 100 µg/mL
- CCCCCCCCCCCCCCCC(=O)N[C@H](CCCCN)C(=O)N[C@H](CCCCN)C(=O)N[C@@H](Cc1ccccc1)C(=O)N[C@H](CCCCN)C(=O)N[C@@H](Cc1ccccc1)C(N)=O [lipopeptide #8, p-kkFkF] (Palmitoyl-[dK][dK]F[dK]F-NH2) — 17-fold lower, 6 µg/mL
- CCCCCCCCCCCCCCCC(=O)N[C@H](CCCCN)C(=O)N[C@@H](Cc1ccccc1)C(=O)N[C@H](CCCCN)C(=O)N[C@@H](Cc1ccccc1)C(=O)N[C@H](CCCCN)C(N)=O [lipopeptide #12, p-kFkFk] (Palmitoyl-[dK]F[dK]F[dK]-NH2) — 8.3-fold lower, 12 µg/mL
- CCCCCCCCCCCCCCCC(=O)N[C@H](CCCCN)C(=O)N[C@H](CCCCN)C(=O)N[C@H](CCCCN)C(=O)N[C@H](CCCCN)C(=O)N[C@H](CCCCN)C(N)=O [lipopeptide #1, p-kkkkk] (Palmitoyl-[dK][dK][dK][dK][dK]-NH2) — 17-fold lower, 6 µg/mL

same assay, conditions: highest concentration tested 200 μg/ml

With p-FFkFk [lipopeptide #25] the “inhibitory activity in MIC assay (in words)” value (shortened to “inhibitory activity”) was “no inhibitory activity”.
With p-FFkkF [lipopeptide #22] the “inhibitory activity” value was “no inhibitory activity”.
p-FkFFk [lipopeptide #24] was tested, and the “inhibitory activity” value was “no inhibitory activity”.
In the case of p-FFFkk [lipopeptide #26], the “inhibitory activity” value is reported as “not active”.

system: MRSA cells; test: Mixing leucine-lysine random peptide mixtures and copper ions assay; type: cell-based, Staphylococcus aureus; conditions: 400 ppm copper sulfate, 6 hours
Method: Mixing Leucine-Lysine random peptide mixtures and copper ions assay: MRSA cells were grown as described in order to prepare a bacterial suspension with O.D.600 nm of 0.1. […] After mixing by vortex, a 1 mL sample was taken for O.D. measurement and the remaining 1 mL sample was incubated for 6 hours at 37° C., 100 RPM. After this time, the O.D. was re-measured and the percentage growth was calculated according to the equation: […]

For `O=S(=O)([O-])[O-].[Cu+2]` [copper sulfate], the “growth of MRSA lower than the control” value was ~15%.
